The values below are quoted from earlier work in patent US20200221707A1, “Sanitizing Compositions and Methods for Making and Using Same” (priority 2017, published 2020).

For series [1], the system named is Gram-negative bacteria and fungi.
A further series relates to most bacteria. The following applies: in <30 seconds.

Turning to `[H]/N=C(\N/C(=N/[H])NCCCCCCNC(=N)NC(=N)Nc1ccc(Cl)cc1)Nc1ccc(Cl)cc1` [Chlorhexidine], in the series on Gram-positive bacteria, the “amount active against Gram-positive bacteria” value is on record as “at least 1 ppm”. Moreover, the “amount effective against Gram-negative bacteria and fungi” value in series [1] is reported as 10-80 ppm.

Take `CC(C)O` [Isopropyl alcohol]: the bacteria destroyed in the series on most bacteria is listed as greater than 99.99%.
